Measured values published in PubChem BioAssay (NCI).
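The compound was tested at five concentrations on cells cultured in 96-well plates, with a 48-hour exposure period. TGI: concentration producing complete growth inhibition.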

Tests used:
Assay in all cases: growth of human tumour cells (NCI), 48 h
786-0 renal = tested on: 786-0 renal
A498 renal = tested on: A498 renal
A549 NSCLC = tested on: A549 NSCLC
ACHN renal = tested on: ACHN renal
CAKI-1 renal = tested on: CAKI-1 renal
CCRF-CEM leukemia = tested on: CCRF-CEM leukemia
COLO 205 colon = tested on: COLO 205 colon
DLD-1 colon = tested on: DLD-1 colon
DMS 114 small cell lung = tested on: DMS 114 small cell lung
DMS 273 small cell lung = tested on: DMS 273 small cell lung
EKVX NSCLC = tested on: EKVX NSCLC
HCC-2998 colon = tested on: HCC-2998 colon
HCT-116 colon = tested on: HCT-116 colon
HCT-15 colon = tested on: HCT-15 colon
HL-60(TB) leukemia = tested on: HL-60(TB) leukemia
HOP-18 NSCLC = tested on: HOP-18 NSCLC
HOP-92 NSCLC = tested on: HOP-92 NSCLC
HT29 colon = tested on: HT29 colon
IGROV1 ovarian = tested on: IGROV1 ovarian
K-562 leukemia = tested on: K-562 leukemia
KM12 colon = tested on: KM12 colon
KM20L2 colon = tested on: KM20L2 colon
LOX IMVI melanoma = tested on: LOX IMVI melanoma
LXFL 529 NSCLC = tested on: LXFL 529 NSCLC
M14 melanoma = tested on: M14 melanoma
M19-MEL melanoma = tested on: M19-MEL melanoma
MALME-3M melanoma = tested on: MALME-3M melanoma
MOLT-4 leukemia = tested on: MOLT-4 leukemia
NCI-H226 lung = tested on: NCI-H226 lung
NCI-H23 lung = tested on: NCI-H23 lung
NCI-H522 lung = tested on: NCI-H522 lung
OVCAR-3 ovarian = tested on: OVCAR-3 ovarian
OVCAR-4 ovarian = tested on: OVCAR-4 ovarian
OVCAR-5 ovarian = tested on: OVCAR-5 ovarian
OVCAR-8 ovarian = tested on: OVCAR-8 ovarian
RPMI-8226 leukemia = tested on: RPMI-8226 leukemia
RXF 393 renal = tested on: RXF 393 renal
RXF-631 renal = tested on: RXF-631 renal
SF-268 CNS = tested on: SF-268 CNS
SF-295 CNS = tested on: SF-295 CNS
SF-539 CNS = tested on: SF-539 CNS
SK-MEL-2 melanoma = tested on: SK-MEL-2 melanoma
SK-MEL-28 melanoma = tested on: SK-MEL-28 melanoma
SK-MEL-5 melanoma = tested on: SK-MEL-5 melanoma
SK-OV-3 ovarian = tested on: SK-OV-3 ovarian
SN12C renal = tested on: SN12C renal
SNB-19 CNS = tested on: SNB-19 CNS
SNB-75 CNS = tested on: SNB-75 CNS
SNB-78 CNS = tested on: SNB-78 CNS
SW-620 colon = tested on: SW-620 colon
TK-10 renal = tested on: TK-10 renal
U251 CNS = tested on: U251 CNS
UACC-257 melanoma = tested on: UACC-257 melanoma
UACC-62 melanoma = tested on: UACC-62 melanoma
UO-31 renal = tested on: UO-31 renal
HOP-62 NSCLC = tested on: HOP-62 NSCLC
NCI-H460 lung = tested on: NCI-H460 lung
SR leukemia = tested on: SR leukemia

Measured: TGI

CC12OC3(C)OC(=O)C(c4ccccc4)(O1)C3(C)O2 (stereo not given)
not listed: HOP-62 NSCLC | NCI-H460 lung | SR leukemia
> 100 µM: all other assays above

CC(=O)NNc1nc(C)c(C(=O)/C=C/c2cccc([N+](=O)[O-])c2)s1
not listed: ACHN renal | OVCAR-4 ovarian | SNB-75 CNS
> 100 µM: all other assays above
